Test system: 299254-011-R-J1-PDC complex spheroids viability
Experiment: Anticancer human tumor 299254-011-R-J1-PDC patient-derived melanoma cell line growth inhibition [GQUAD]
Settings: for IC50: curve of first compound; for viability, T/C: stronger effect = lower value
Outline: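 Viability of tumor cells grown as complex spheroids with endothelial and stromal cells, exposed to drug combinations. Top concentration at or near clinical Cmax (else 10 microM), diluted in half-log increments.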

[1] = second compound 0.0316 µM, first compound 0.0316 µM
[2] = second compound 0.0316 µM, first compound 0.1 µM
[3] = second compound 0.0316 µM, first compound 0.316 µM
[4] = second compound 0.0316 µM, first compound 1 µM
[5] = second compound 0.0316 µM, first compound 3.16 µM
[6] = second compound 0.0316 µM, first compound 10 µM
[7] = second compound 0.1 µM, first compound 0.0316 µM
[8] = second compound 0.1 µM, first compound 0.1 µM
[9] = second compound 0.1 µM, first compound 0.316 µM
[10] = second compound 0.1 µM, first compound 1 µM
[11] = second compound 0.1 µM, first compound 3.16 µM
[12] = second compound 0.1 µM, first compound 10 µM
[13] = second compound 0.316 µM, first compound 0.0316 µM
[14] = second compound 0.316 µM, first compound 0.1 µM
[15] = second compound 0.316 µM, first compound 0.316 µM
[16] = second compound 0.316 µM, first compound 1 µM
[17] = second compound 0.316 µM, first compound 3.16 µM
[18] = second compound 0.316 µM, first compound 10 µM
[19] = second compound 1 µM, first compound 0.0316 µM
[20] = second compound 1 µM, first compound 0.1 µM
[21] = second compound 1 µM, first compound 0.316 µM
[22] = second compound 1 µM, first compound 1 µM
[23] = second compound 1 µM, first compound 3.16 µM
[24] = second compound 1 µM, first compound 10 µM
[25] = second compound 3.16 µM, first compound 0.0316 µM
[26] = second compound 3.16 µM, first compound 0.1 µM
[27] = second compound 3.16 µM, first compound 0.316 µM
[28] = second compound 3.16 µM, first compound 1 µM
[29] = second compound 3.16 µM, first compound 3.16 µM
[30] = second compound 3.16 µM, first compound 10 µM
[31] = second compound 10 µM, first compound 0.0316 µM
[32] = second compound 10 µM, first compound 0.1 µM
[33] = second compound 10 µM, first compound 0.316 µM
[34] = second compound 10 µM, first compound 1 µM
[35] = second compound 10 µM, first compound 3.16 µM
[36] = second compound 10 µM, first compound 10 µM
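Further: spheroids exposed to the agents for seven days before readout.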
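Wherever viability, T/C is given: percent viability relative to DMSO vehicle control wells = 100%.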

## O=c1[nH]cc(F)c(=O)[nH]1 + Cc1cnc(CNC(=O)c2c(=O)c3ccc(N4CCCN(C)CC4)nc3n3c2sc2ccccc23)cn1
Second compound 0.0316 µM
  IC50: > 10 µM
Second compound 0.1 µM
  IC50: > 10 µM
Second compound 0.316 µM
  IC50: > 10 µM
Second compound 1 µM
  IC50: > 10 µM
Second compound 3.16 µM
  IC50: > 10 µM
Second compound 10 µM
  IC50: 0.0316 µM
[1]
  viability, T/C: 90.9%
[2]
  viability, T/C: 86%
[3]
  viability, T/C: 110%
[4]
  viability, T/C: 84.3%
[5]
  viability, T/C: 106%
[6]
  viability, T/C: 106%
[7]
  viability, T/C: 92.8%
[8]
  viability, T/C: 92.1%
[9]
  viability, T/C: 105%
[10]
  viability, T/C: 88.1%
[11]
  viability, T/C: 99.1%
[12]
  viability, T/C: 98.5%
[13]
  viability, T/C: 83.7%
[14]
  viability, T/C: 123%
[15]
  viability, T/C: 99.4%
[16]
  viability, T/C: 88.5%
[17]
  viability, T/C: 89.8%
[18]
  viability, T/C: 105%
[19]
  viability, T/C: 86.9%
[20]
  viability, T/C: 78%
[21]
  viability, T/C: 74.8%
[22]
  viability, T/C: 92.4%
[23]
  viability, T/C: 94.5%
[24]
  viability, T/C: 91.3%
[25]
  viability, T/C: 96%
[26]
  viability, T/C: 76%
[27]
  viability, T/C: 82.5%
[28]
  viability, T/C: 84.2%
[29]
  viability, T/C: 95.2%
[30]
  viability, T/C: 91.3%
[31]
  viability, T/C: 58.7%
[32]
  viability, T/C: 16.9%
[33]
  viability, T/C: 57.7%
[34]
  viability, T/C: 65.6%
[35]
  viability, T/C: 55.4%
[36]
  viability, T/C: 2.68%

## CCc1c2c(nc3ccc(O)cc13)-c1cc3c(c(=O)n1C2)COC(=O)[C@]3(O)CC + Cc1cnc(CNC(=O)c2c(=O)c3ccc(N4CCCN(C)CC4)nc3n3c2sc2ccccc23)cn1
Second compound 0.0316 µM
  IC50: > 0.316 µM
Second compound 0.1 µM
  IC50: > 0.316 µM
Second compound 0.316 µM
  IC50: > 0.316 µM
Second compound 1 µM
  IC50: > 0.316 µM
Second compound 3.16 µM
  IC50: 0.142 µM
Second compound 10 µM
  IC50: < 0.000999 µM
Second compound 0.0316 µM, first compound 0.000999 µM
  viability, T/C: 102%
Second compound 0.0316 µM, first compound 0.00316 µM
  viability, T/C: 95.6%
Second compound 0.0316 µM, first compound 0.00999 µM
  viability, T/C: 68.3%
[1]
  viability, T/C: 70.9%
Second compound 0.0316 µM, first compound 0.0999 µM
  viability, T/C: 76.7%
[3]
  viability, T/C: 62.3%
Second compound 0.1 µM, first compound 0.000999 µM
  viability, T/C: 95.5%
Second compound 0.1 µM, first compound 0.00316 µM
  viability, T/C: 107%
Second compound 0.1 µM, first compound 0.00999 µM
  viability, T/C: 76.5%
[7]
  viability, T/C: 71.2%
Second compound 0.1 µM, first compound 0.0999 µM
  viability, T/C: 65.5%
[9]
  viability, T/C: 60.2%
Second compound 0.316 µM, first compound 0.000999 µM
  viability, T/C: 93.8%
Second compound 0.316 µM, first compound 0.00316 µM
  viability, T/C: 95.4%
Second compound 0.316 µM, first compound 0.00999 µM
  viability, T/C: 72.4%
[13]
  viability, T/C: 67.8%
Second compound 0.316 µM, first compound 0.0999 µM
  viability, T/C: 68.2%
[15]
  viability, T/C: 60.5%
Second compound 1 µM, first compound 0.000999 µM
  viability, T/C: 76.4%
Second compound 1 µM, first compound 0.00316 µM
  viability, T/C: 79.8%
Second compound 1 µM, first compound 0.00999 µM
  viability, T/C: 77.5%
[19]
  viability, T/C: 74.8%
Second compound 1 µM, first compound 0.0999 µM
  viability, T/C: 54.6%
[21]
  viability, T/C: 63.4%
Second compound 3.16 µM, first compound 0.000999 µM
  viability, T/C: 77.6%
Second compound 3.16 µM, first compound 0.00316 µM
  viability, T/C: 68%
Second compound 3.16 µM, first compound 0.00999 µM
  viability, T/C: 64%
[25]
  viability, T/C: 59%
Second compound 3.16 µM, first compound 0.0999 µM
  viability, T/C: 56%
[27]
  viability, T/C: 43%
Second compound 10 µM, first compound 0.000999 µM
  viability, T/C: 0.47%
Second compound 10 µM, first compound 0.00316 µM
  viability, T/C: 20.1%
Second compound 10 µM, first compound 0.00999 µM
  viability, T/C: 34.8%
[31]
  viability, T/C: 11.9%
Second compound 10 µM, first compound 0.0999 µM
  viability, T/C: 0.39%
[33]
  viability, T/C: 0.32%

## CCCS(=O)(=O)Nc1ccc(F)c(C(=O)c2c[nH]c3ncc(-c4ccc(Cl)cc4)cc23)c1F + Cc1cnc(CNC(=O)c2c(=O)c3ccc(N4CCCN(C)CC4)nc3n3c2sc2ccccc23)cn1
Second compound 0.0316 µM
  IC50: 9.46 µM
Second compound 0.1 µM
  IC50: 8.9 µM
Second compound 0.316 µM
  IC50: 9.48 µM
Second compound 1 µM
  IC50: 8.5 µM
Second compound 3.16 µM
  IC50: 7.67 µM
Second compound 10 µM
  IC50: < 0.0316 µM
[1]
  viability, T/C: 107%
[2]
  viability, T/C: 94%
[3]
  viability, T/C: 83.1%
[4]
  viability, T/C: 106%
[5]
  viability, T/C: 130%
[6]
  viability, T/C: 47.1%
[7]
  viability, T/C: 119%
[8]
  viability, T/C: 129%
[9]
  viability, T/C: 92.9%
[10]
  viability, T/C: 128%
[11]
  viability, T/C: 116%
[12]
  viability, T/C: 42.6%
[13]
  viability, T/C: 92.8%
[14]
  viability, T/C: 109%
[15]
  viability, T/C: 92.9%
[16]
  viability, T/C: 99%
[17]
  viability, T/C: 113%
[18]
  viability, T/C: 47.5%
[19]
  viability, T/C: 88.5%
[20]
  viability, T/C: 85%
[21]
  viability, T/C: 105%
[22]
  viability, T/C: 96.8%
[23]
  viability, T/C: 106%
[24]
  viability, T/C: 42.4%
[25]
  viability, T/C: 85.5%
[26]
  viability, T/C: 96.6%
[27]
  viability, T/C: 106%
[28]
  viability, T/C: 91.5%
[29]
  viability, T/C: 118%
[30]
  viability, T/C: 35.1%
[31]
  viability, T/C: 4.58%
[32]
  viability, T/C: 0.48%
[33]
  viability, T/C: 0.57%
[34]
  viability, T/C: 0.54%
[35]
  viability, T/C: 0.42%
[36]
  viability, T/C: 0.34%

## C=CC(=O)N1CCN(c2nc(=O)n(-c3c(C)ccnc3C(C)C)c3nc(-c4c(O)cccc4F)c(F)cc23)C(C)C1 (stereo not drawn) + CN(C)c1ccc(Nc2c3ccc(NC(=O)CCN4CCCC4)cc3nc3cc(NC(=O)CCN4CCCC4)ccc23)cc1
Second compound 0.0316 µM
  IC50: > 10 µM
Second compound 0.1 µM
  IC50: > 10 µM
Second compound 0.316 µM
  IC50: > 10 µM
Second compound 1 µM
  IC50: > 10 µM
Second compound 3.16 µM
  IC50: > 10 µM
Second compound 10 µM
  IC50: > 10 µM
[1]
  viability, T/C: 93.8%
[2]
  viability, T/C: 68.9%
[3]
  viability, T/C: 73.1%
[4]
  viability, T/C: 56.3%
[5]
  viability, T/C: 64.4%
[6]
  viability, T/C: 66.6%
[7]
  viability, T/C: 79.4%
[8]
  viability, T/C: 80.2%
[9]
  viability, T/C: 57%
[10]
  viability, T/C: 60.4%
[11]
  viability, T/C: 74.7%
[12]
  viability, T/C: 74.3%
[13]
  viability, T/C: 76.2%
[14]
  viability, T/C: 81.3%
[15]
  viability, T/C: 62.3%
[16]
  viability, T/C: 68.2%
[17]
  viability, T/C: 67.3%
[18]
  viability, T/C: 65.4%
[19]
  viability, T/C: 81.1%
[20]
  viability, T/C: 74%
[21]
  viability, T/C: 71.8%
[22]
  viability, T/C: 67.4%
[23]
  viability, T/C: 80%
[24]
  viability, T/C: 65%
[25]
  viability, T/C: 71.2%
[26]
  viability, T/C: 83.3%
[27]
  viability, T/C: 75.8%
[28]
  viability, T/C: 60.4%
[29]
  viability, T/C: 73%
[30]
  viability, T/C: 79.1%
[31]
  viability, T/C: 74.4%
[32]
  viability, T/C: 74.8%
[33]
  viability, T/C: 74.7%
[34]
  viability, T/C: 68.2%
[35]
  viability, T/C: 69.7%
[36]
  viability, T/C: 76.8%

Source: PubChem BioAssay AID2060513 (Molecular Pharmacology Branch, DTP, NCI, 2025)
